Like-named read-outs stand apart in the source and are kept apart here.
Key:
[1] = target: T1, Full length wild-type cereblon CRBN (Homo sapiens, UniProt Q96SW2); assay: Fluorescence polarization (FP) assay indicating cereblon binding; settings: CRBN 80.0 nM, fluorescent probe 5 nM, FP measured after 12 hours; read-out: rFP IC50
T1 construct: Full length wild-type cereblon CRBN (80.0 nM, 10 μL) was incubated in assay buffer
Source text: Protocol for Fluorescent Polarization Assay
Compound activity was monitored in a fluorescence polarization (FP) homogeneous assay using 1-[5-({2-[2-(2-{[2-(2,6-dioxopiperidin-3-yl)-1,3-dioxo-2,3-dihydro-1H-isoindol-4-yl]oxy}acetamido)ethoxy]ethyl}carbamoyl)pentyl]-3,3-dimethyl-2-[(1E,3E)-5-[(2E)-1,3,3-trimethyl-5-sulfo-2,3-dihydro-1H-indol-2-ylidene]penta-1,3-dien-1-yl]-3H-indol-1-ium-5-sulfonate as a fluorescent probe. Unless otherwise stated, all reagents were purchased from Sigma Aldrich. Enzymatic reactions were conducted in Perkin-Elmer Black 384 well ProxiPlate Plus (catalogue no. 6008269) in 10 μL total volume. Full length wild-type cereblon CRBN (80.0 nM, 10 μL) was incubated in assay buffer containing 20 mM HEPES (pH 8.0), […], 0.5 mM TCEP and 0.05% Tween 20 in the presence or absence of compound (300 nL). Inhibitors were stored as 10 mM DMSO stocks in an inert environment (low humidity, dark, low oxygen, room temperature) using the Storage Pod System. Compounds and DMSO were dispensed using the Echo E5XX (Labcyte Inc. USA) to give concentrations from 300 to 0.937 or 3000 to 9.3 nM in a 12 data point curve. […] Following incubation at room temperature for […], the assay was initiated by dispensing the probe to a final concentration of 5 nM (2.5 nL of a 20 μM stock) using the Echo E5XX. FP was measured after a period of 12 hours using a Pherastar plate reader (BMG Labtech, Germany) exciting at 590 nm and measuring the amount of parallel and perpendicular light at 675 nm. The FP signal was subsequently normalized to the no-compound control (i.e., DMSO). Analysis and IC50 values were derived using Dotmatics (Dotmatics UK) software.

[2] = target: GSPT1 (Homo sapiens, UniProt P15170+Q96SW2); assay: Immunofluorescence assay for GSPT1 degradation in CAL-51 cells; type: cell-based; parameters: CAL-51 cells were purchased from DSMZ (cat. Number ACC302); endogenous in cells; host or cells: CAL-51 (DSMZ ACC302); settings: compound treatment 6 hours
GSPT1, sequence (P15170 whole entry): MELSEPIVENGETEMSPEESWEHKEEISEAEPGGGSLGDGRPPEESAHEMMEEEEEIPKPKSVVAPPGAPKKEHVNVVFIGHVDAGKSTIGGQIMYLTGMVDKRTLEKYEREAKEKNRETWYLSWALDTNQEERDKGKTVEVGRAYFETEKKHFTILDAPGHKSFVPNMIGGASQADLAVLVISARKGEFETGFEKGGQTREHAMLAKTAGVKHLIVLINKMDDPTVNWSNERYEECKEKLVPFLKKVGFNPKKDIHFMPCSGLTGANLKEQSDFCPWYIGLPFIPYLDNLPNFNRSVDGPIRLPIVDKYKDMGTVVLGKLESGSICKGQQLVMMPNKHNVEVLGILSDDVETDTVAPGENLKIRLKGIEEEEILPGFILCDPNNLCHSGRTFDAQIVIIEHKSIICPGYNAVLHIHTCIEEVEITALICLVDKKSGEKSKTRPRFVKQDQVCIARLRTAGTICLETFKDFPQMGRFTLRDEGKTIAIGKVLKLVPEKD
GSPT1, sequence (Q96SW2 whole entry): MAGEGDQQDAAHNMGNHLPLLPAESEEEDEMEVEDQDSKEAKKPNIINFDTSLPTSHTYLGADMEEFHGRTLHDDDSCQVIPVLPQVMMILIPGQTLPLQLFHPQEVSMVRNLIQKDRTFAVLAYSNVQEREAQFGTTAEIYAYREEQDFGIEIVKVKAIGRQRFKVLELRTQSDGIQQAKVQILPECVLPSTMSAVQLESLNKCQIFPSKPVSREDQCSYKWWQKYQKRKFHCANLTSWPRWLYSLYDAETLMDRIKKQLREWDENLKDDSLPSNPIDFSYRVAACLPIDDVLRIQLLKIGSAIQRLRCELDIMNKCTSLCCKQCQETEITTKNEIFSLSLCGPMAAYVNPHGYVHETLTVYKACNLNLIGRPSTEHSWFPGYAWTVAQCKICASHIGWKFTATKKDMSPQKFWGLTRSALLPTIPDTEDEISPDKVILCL
GSPT1, sequence (Q16531 2-1140 partner limits assumed): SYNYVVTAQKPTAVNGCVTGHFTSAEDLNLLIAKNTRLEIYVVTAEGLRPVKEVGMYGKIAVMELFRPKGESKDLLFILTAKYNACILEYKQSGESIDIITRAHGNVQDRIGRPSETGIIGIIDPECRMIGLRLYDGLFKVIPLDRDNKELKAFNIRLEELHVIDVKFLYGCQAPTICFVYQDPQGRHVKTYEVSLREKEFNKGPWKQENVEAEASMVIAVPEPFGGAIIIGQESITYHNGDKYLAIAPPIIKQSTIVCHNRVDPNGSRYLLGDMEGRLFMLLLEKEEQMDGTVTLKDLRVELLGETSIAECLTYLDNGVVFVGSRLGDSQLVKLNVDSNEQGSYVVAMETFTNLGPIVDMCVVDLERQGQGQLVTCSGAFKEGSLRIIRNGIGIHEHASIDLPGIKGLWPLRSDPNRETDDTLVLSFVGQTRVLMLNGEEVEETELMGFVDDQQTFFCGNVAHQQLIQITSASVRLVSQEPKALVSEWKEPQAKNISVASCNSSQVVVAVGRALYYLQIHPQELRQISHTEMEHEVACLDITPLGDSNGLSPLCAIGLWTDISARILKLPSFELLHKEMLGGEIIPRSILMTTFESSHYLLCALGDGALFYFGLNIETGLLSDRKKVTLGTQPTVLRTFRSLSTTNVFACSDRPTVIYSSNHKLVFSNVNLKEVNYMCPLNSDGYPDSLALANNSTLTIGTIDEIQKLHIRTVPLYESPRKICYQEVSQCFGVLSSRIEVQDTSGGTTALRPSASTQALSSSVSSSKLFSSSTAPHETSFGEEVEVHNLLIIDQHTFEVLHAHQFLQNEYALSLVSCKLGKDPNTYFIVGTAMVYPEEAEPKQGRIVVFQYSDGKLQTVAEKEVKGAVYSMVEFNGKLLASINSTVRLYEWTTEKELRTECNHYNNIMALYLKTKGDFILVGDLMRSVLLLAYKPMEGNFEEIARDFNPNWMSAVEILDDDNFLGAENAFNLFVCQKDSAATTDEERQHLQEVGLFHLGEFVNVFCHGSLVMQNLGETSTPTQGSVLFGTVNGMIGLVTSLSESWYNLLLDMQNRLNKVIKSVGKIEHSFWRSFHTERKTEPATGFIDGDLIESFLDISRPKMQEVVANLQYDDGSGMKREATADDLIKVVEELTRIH
Description: CAL-51 cells were purchased from DSMZ (cat. Number ACC302), sub-cultured in 90% Dulbecco's MEM (4.5 g/L glucose, Gibco 11965) +10% heat inactivated FBS (BioConcept, 2-01F136I) and incubated at 37° C., 5% CO2. For the assay, imaging microtiterplate Cell Carrier 96 Ultra (Perkin Elmer 6055302) were pre-coated with Fibronectin (Sigma F085, 300 at 0.2 μg/ml) in PBS (1000, Gibco 14190) for 45 min at room temperature, rinsed with PBS and CAL-51 cells (30K cells/well) were plated and let to adhere overnight. Cells were treated with compounds typically using a serial dilution ranging from 30 μM to 0.1 nM for 6 hours. Compounds were stored at 10 mM DMSO stocks. Vehicle (DMSO), positive (CC-885, 10 μM) and rescue controls (positive control plus 0.2 μM bortezomib) were also included at this stage. Cells were subsequently rinsed with PBS and fixed in 10% Formalin solution (50 μl, Sigma HT5011)) for 20 mins at room temperature. Following three consecutive PBS washes (100 μl), cells were permeabilized in 0.1% Triton X-100 in PBS (Sigma 93443, 50 μl) for 15 mins at room temperature. Following three further PBS washes, 50 μl blocking buffer (1% BSA, Sigma A4503, in PBS) was added for 45 min for signal-to-noise reduction. Primary antibody (human GSPT1, Sigma HPA052488) was diluted in blocking buffer (dil. 1/300, 35 μl/well) and incubated with the cells overnight at 4° C. After three PBS washes, Alexa-fluor 488 coupled secondary antibodies (Invitrogen, A32731, dil. 1/1000), Alexa-fluor 647-Phalloïdin (Invitrogen, A22287, dil. 1/200) and DAPI (Thermo, #62248, dil.1/1000) were diluted in blocking buffer and incubated with the samples for 2 hours at room temperature. After three final PBS washes, samples were conserved in 1000 PBS in the dark, until measurement. Image acquisition was performed on the Operetta High-Content Imager (Perkin-Elmer). Fluorescence intensity of Alexa-Fluor 488 (GSPT1), Alexa-Fluor 647 (Actin) and DAPI (Nucleus) were measured. For the determination of GSPT1 DC50 values, a custom algorithm implemented in the PerkinElmer image analysis software Harmony-Acapella® was developed. After user-defined setting of adjustment parameters, the analysis was run identically without human intervention for all image fields. DAPI staining of the nuclei was used to determine the location of cells using standard nuclei detection modules. Segmentation artifacts were removed by threshold-based filters for area, roundness and intensity. The outline of the cells was determined analogously from the sum of the normalized, smoothed DAPI and Actin channel, starting from each nucleus. The Alexa-Fluor 488 (GSPT1) signal intensity in each cell was finally measured, in order to obtain a Mean intensity per cell. GSPT1 degradation (DC50) was calculated after normalization to controls and data import in CDD vault Database, using non-linear regression. Activity for GSPT1 Degradation Table 3 assigns each compound a code indicating the ability for GSPT1 degradation: A, B or C. According to the code, A represents a DC50 value of ≤100 nM, B represents a DC50 value >100 nM and ≤300 nM and C represents a DC50 value of >300 nM.

[3] = read-out: Code: activity for GSPT1 degradation (DC50)

T1 sequence (Q96SW2 whole entry): as the sequence (Q96SW2 whole entry) above

Compound `Cc1c(Cl)cc(NC(=O)NCc2ccc3c(c2)C(=O)N(C2CCC(=O)NC2=O)C3)cc1C[C@H]1CO[C@H](C)OC1` (stereo partly drawn) [Compound 141] has an IC50 [1] of 352 nM and a DC50 [2, 3] of at most 100 nM.
In the case of `Cc1c(Cl)cc(NC(=O)NCc2ccc3c(c2)C(=O)N(C2CCC(=O)NC2=O)C3)cc1CC1COC(C)(C)OC1` (stereo not drawn) [Compound 142], the IC50 [1] is reported as 594 nM and the DC50 [2, 3] is reported as at most 100 nM.
Compound `Cc1c(Cl)cc(NC(=O)NCc2ccc3c(c2)C(=O)N(C2CCC(=O)NC2=O)C3)cc1OC(F)(F)F` (stereo not drawn) [Compound 143] has an IC50 [1] of 3590 nM and a DC50 [2, 3] of 100 to 300 nM.
`Cc1ccc(NC(=O)NCc2ccc3c(c2)C(=O)N(C2CCC(=O)NC2=O)C3)cc1OC(F)(F)F` (stereo not drawn) [Compound 144] was tested, and the IC50 [1] was 544 nM and the DC50 [2, 3] was at most 100 nM.
With `Cc1c(Cl)cc(NC(=O)NCc2ccc3c(c2)C(=O)N(C2CCC(=O)NC2=O)C3)cc1C[C@H]1CO[C@@H](C)OC1` (stereo partly drawn) [Compound 145] the IC50 [1] was 741 nM and the DC50 [2, 3] was at most 100 nM.
Compound `Cc1cc(NC(=O)NCc2ccc3c(c2)C(=O)N(C2CCC(=O)NC2=O)C3)sn1` (stereo not drawn) [Compound 146] has an IC50 [1] of 341 nM and a DC50 [2, 3] of over 300 nM.
`Cc1cnc(NC(=O)NCc2ccc3c(c2)C(=O)N(C2CCC(=O)NC2=O)C3)s1` (stereo not drawn) [Compound 147] showed an IC50 [1] of 253 nM and a DC50 [2, 3] of over 300 nM.
`CCc1cnc(NC(=O)NCc2ccc3c(c2)C(=O)N(C2CCC(=O)NC2=O)C3)s1` (stereo not drawn) [Compound 148] showed an IC50 [1] of 169 nM and a DC50 [2, 3] of over 300 nM.
`O=C1CCC(N2Cc3ccc(CNC(=O)Nc4cc(C(F)(F)F)ns4)cc3C2=O)C(=O)N1` (stereo not drawn) [Compound 149] gave an IC50 [1] of 1130 nM and a DC50 [2, 3] of over 300 nM.
In the case of `Cc1nc(NC(=O)NCc2ccc3c(c2)C(=O)N(C2CCC(=O)NC2=O)C3)sc1C` (stereo not drawn) [Compound 150], the IC50 [1] is reported as 304 nM and the DC50 [2, 3] is reported as over 300 nM.
`Cc1c(CN2CCOCC2)cc(NC(=O)NCc2ccc3c(c2)C(=O)N(C2CCC(=O)NC2=O)C3)cc1OC(F)(F)F` (stereo not drawn) [Compound 151] was tested, and the IC50 [1] was 883 nM and the DC50 [2, 3] was at most 100 nM.
Work on `Cc1ccc(CNC(=O)NCc2ccc3c(c2)C(=O)N(C2CCC(=O)NC2=O)C3)cc1Cl` (stereo not drawn) [Compound 152] yielded an IC50 [1] of 284 nM and a DC50 [2, 3] of over 300 nM.
Compound `O=C1CCC(N2Cc3ccc(CNC(=O)Nc4ccc5c(c4)OCO5)cc3C2=O)C(=O)N1` (stereo not drawn) [Compound 153] has an IC50 [1] of 1840 nM and a DC50 [2, 3] of over 300 nM.
`Cc1c(Cl)cc(NC(=O)NCc2ccc3c(c2)C(=O)N(C2CCC(=O)NC2=O)C3)cc1C12CC1CN(C)C2` (stereo not drawn) [Compound 155] showed an IC50 [1] of 581 nM, a DC50 ([2]; GSPT1 degradation, read-out: DC50) of 176 nM and a DC50 [2, 3] of 100 to 300 nM.
For `Cc1c(Cl)cc(NC(=O)NCc2ccc3c(c2)C(=O)N(C2CCC(=O)NC2=O)C3)cc1C=O` (stereo not drawn) [Compound 156], the IC50 [1] was 607 nM and the DC50 [2, 3] was over 300 nM.
Work on `Cc1ncc(NC(=O)NCc2ccc3c(c2)C(=O)N(C2CCC(=O)NC2=O)C3)cc1Cl` (stereo not drawn) [Compound 157] yielded an IC50 [1] of 1520 nM and a DC50 [2, 3] of over 300 nM.
`Cc1cc(NC(=O)NCc2ccc3c(c2)C(=O)N(C2CCC(=O)NC2=O)C3)cc(C)n1` (stereo not drawn) [Compound 158] gave an IC50 [1] of 1440 nM and a DC50 [2, 3] of over 300 nM.
Compound `Cc1ccc(NC(=O)NCc2ccc3c(c2)C(=O)N(C2CCC(=O)NC2=O)C3)cc1OC(F)F` (stereo not drawn) [Compound 159] has an IC50 [1] of 676 nM and a DC50 [2, 3] of over 300 nM.
In the case of `CN1CCC(COc2cc(Cl)cc(NC(=O)NCc3ccc4c(c3)C(=O)N(C3CCC(=O)NC3=O)C4)c2)C1` (stereo not drawn) [Compound 161], the IC50 [1] is reported as 300 nM and the DC50 [2, 3] is reported as over 300 nM.
